# In US20190029987A1, “DIMETHYL FUMARATE (DMF) FOR PREVENTION OR TREATMENT OF GOUT, ACNE, DIABETES, VITILIGO AND/OR PYODERMA GANGRENOSUM” (UNIVERSITAT ZURICH, priority 2016, published 2019):
# Peptide text beside a SMILES is read from it. * marks the point of attachment. Cbz = O=C(OCc1ccccc1)*
# How the values were obtained:
# Nrf2 [1] = assay: UVB-induced Nrf2 degradation in HPKs (Western blot); type: cell-based, human; details: 1 μM for 10 min, harvested after 1 h, FIG. 7D
# Text: Next, the inventors investigated the activity of Nrf2 upon activation of the NLRP3 inflammasome, since inflammasome activation is ROS-dependent. […] This is surprising, since UVB irradiation is a strong inducer of ROS production and it can be anticipated that the cells would benefit from Nrf2 activation. UVB-induced secretion by HPKs requires expression of NLRP1 and NLRP3 [21]. Both nigericin and MSU crystals are considered as “true” NLRP3 activators, but HPKs cannot phagocytose MSU crystals. Therefore, the inventors treated HPKs with nigericin only and THP-1 cells with either of these NLRP3 activators. […] Therefore, NLRP3 inflammasome activation most likely induces Nrf2 protein degradation. […] However, inflammasome activation-induced Nrf2 degradation was blocked upon ablation of ASC or NLRP3 expression (FIG. 4G) and upon treatment of cells with the ROS blocker PDTC or the Ca2+ chelator BAPTA-AM (Supplementary FIG. 2D). […] However, inflammasome function was not impaired, as reflected by normal processing of pro-IL-18 (FIG. 4H). Although Keap1 expression is partially dispensable for Nrf2 degradation by inflammasome activation, the transcription factor is directed to the proteasome under these conditions, since Nrf2 degradation was inhibited by the proteasome inhibitor MG132 (FIG. 4I and FIG. 7D).
# FIG. 7: (A-C) HPKs were transfected with siRNAs for 3 d as indicated. Scrambled (scr) siRNA and siRNA targeting the unrelated vascular endothelial growth factor (VEGF) served as controls. Western blots of (A) total lysates or (B) nuclear and cytoplasmic lysates and (C) qRT-PCR for expression of target gene expression. (D) HPKs were treated with MG132 (1 μM), PDTC (500 μM) or BAPTA-AM (12.5 μM) for 10 min and harvested (before UV) or irradiated with UVB and harvested after 1 h. Western blots showing expression of Nrf2. (E) Differentiated and primed THP-1 cells were pretreated with cycloheximide (CHX, 30 μg/ml) for 1 h before priming cells with upLPS overnight. Western blots show expression of the indicated proteins. […] Statistics: (C) Mann-Whitney test, related to scr control. *P≤0.05
# Nrf2 [2] = assay: Nigericin-induced Nrf2 degradation in THP-1 cells (Western blot); type: cell-based, human; details: THP-1, nigericin 5 μM, 1 μM added after 1 h, harvested after 2.5 h, FIG. 4I
# Text: Next, the inventors investigated the activity of Nrf2 upon activation of the NLRP3 inflammasome, since inflammasome activation is ROS-dependent. […] This is surprising, since UVB irradiation is a strong inducer of ROS production and it can be anticipated that the cells would benefit from Nrf2 activation. UVB-induced secretion by HPKs requires expression of NLRP1 and NLRP3 [21]. Both nigericin and MSU crystals are considered as “true” NLRP3 activators, but HPKs cannot phagocytose MSU crystals. Therefore, the inventors treated HPKs with nigericin only and THP-1 cells with either of these NLRP3 activators. […] Therefore, NLRP3 inflammasome activation most likely induces Nrf2 protein degradation. […]
# (A-C) HPKs were irradiated with (A) UVB or treated with (B) nigericin (5 μM) and cells and supernatants were harvested at different time points as indicated. […] (C) Expression of Nrf2 and Nrf2 target genes was determined by qRT-PCR. […] Cells and supernatants were harvested at different time points as indicated and analysed for (D) expression and activation of the proteins as indicated by Western blot and (E) expression of Nrf2 and Nrf2 target genes by qRT-PCR. […] Cells were harvested after 1 h or 5 h, and lysates were analysed for the expression of the indicated proteins by Western blot. […] (G) Nrf2 expression related to the indicated background band was quantified from the Western blot. […]
structure (smiles),measurement,setting,value
CC(C)C[C@@H](C=O)NC(=O)[C@H](CC(C)C)NC(=O)[C@H](CC(C)C)NC(=O)OCc1ccccc1 [MG132] (Cbz-Leu-Leu-Leu-aldehyde),inflammasome activation-induced Nrf2 degradation,Nrf2 [1],inhibited
same,inflammasome activation-induced Nrf2 degradation,Nrf2 [2],inhibited
